Key:
[1] = target: T1, AtPARP2 (TRXH-AtPARP2) (Arabidopsis thaliana, UniProt Q11207); assay: auto-PARylation assay, immunoblot with anti-pan-ADPR reagent; format: biochemical; details: 1 mM NAD+, 500 nM broken DNA, 25 °C, pH 7.5, Mg2+
T1 construct: gene PARP2; an MBP/MBD fusion was also tested

[2] = target: T2, AtPARP1 (TRXH-AtPARP1) (Arabidopsis thaliana, UniProt Q9ZP54); assay: as above; format: biochemical; details: 20 mM 3-AB, 1 mM NAD+, 500 nM broken DNA, 25 °C, pH 7.5, Mg2+
T2 construct: gene PARP1; full-length coding region in pET32a(+), N-terminal thioredoxin-His (TRXH) tag kept, E. coli Origami (DE3), nickel-purified
T2 sequence (Q9ZP54 1-983): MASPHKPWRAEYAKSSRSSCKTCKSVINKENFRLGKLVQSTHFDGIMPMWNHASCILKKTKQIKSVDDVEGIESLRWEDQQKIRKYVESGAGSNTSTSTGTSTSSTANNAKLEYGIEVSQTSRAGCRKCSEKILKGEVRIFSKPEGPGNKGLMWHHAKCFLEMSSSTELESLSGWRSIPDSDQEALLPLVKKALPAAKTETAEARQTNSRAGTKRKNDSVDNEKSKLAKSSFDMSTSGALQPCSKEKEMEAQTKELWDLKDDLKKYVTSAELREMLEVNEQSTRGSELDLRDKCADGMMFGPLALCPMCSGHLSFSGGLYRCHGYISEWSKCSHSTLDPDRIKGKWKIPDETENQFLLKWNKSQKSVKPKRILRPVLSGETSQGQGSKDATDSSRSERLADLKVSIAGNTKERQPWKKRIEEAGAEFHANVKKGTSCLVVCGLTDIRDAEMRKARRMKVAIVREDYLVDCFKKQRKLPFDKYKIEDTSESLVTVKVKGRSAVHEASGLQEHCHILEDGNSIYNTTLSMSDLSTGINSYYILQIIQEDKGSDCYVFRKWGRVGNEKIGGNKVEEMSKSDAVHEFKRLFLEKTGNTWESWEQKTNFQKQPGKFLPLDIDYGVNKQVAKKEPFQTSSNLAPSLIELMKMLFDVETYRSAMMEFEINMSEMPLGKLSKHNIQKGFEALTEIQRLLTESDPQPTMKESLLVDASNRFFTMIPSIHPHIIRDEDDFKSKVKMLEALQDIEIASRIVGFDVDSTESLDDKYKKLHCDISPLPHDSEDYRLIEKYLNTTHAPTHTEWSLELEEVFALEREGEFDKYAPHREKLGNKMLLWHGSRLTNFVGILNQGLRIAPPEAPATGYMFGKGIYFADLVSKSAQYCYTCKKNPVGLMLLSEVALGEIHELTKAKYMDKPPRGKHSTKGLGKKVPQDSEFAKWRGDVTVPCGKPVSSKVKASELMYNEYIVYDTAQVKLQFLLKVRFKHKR

T1 sequence (Q11207 whole entry, the tested form may be a part): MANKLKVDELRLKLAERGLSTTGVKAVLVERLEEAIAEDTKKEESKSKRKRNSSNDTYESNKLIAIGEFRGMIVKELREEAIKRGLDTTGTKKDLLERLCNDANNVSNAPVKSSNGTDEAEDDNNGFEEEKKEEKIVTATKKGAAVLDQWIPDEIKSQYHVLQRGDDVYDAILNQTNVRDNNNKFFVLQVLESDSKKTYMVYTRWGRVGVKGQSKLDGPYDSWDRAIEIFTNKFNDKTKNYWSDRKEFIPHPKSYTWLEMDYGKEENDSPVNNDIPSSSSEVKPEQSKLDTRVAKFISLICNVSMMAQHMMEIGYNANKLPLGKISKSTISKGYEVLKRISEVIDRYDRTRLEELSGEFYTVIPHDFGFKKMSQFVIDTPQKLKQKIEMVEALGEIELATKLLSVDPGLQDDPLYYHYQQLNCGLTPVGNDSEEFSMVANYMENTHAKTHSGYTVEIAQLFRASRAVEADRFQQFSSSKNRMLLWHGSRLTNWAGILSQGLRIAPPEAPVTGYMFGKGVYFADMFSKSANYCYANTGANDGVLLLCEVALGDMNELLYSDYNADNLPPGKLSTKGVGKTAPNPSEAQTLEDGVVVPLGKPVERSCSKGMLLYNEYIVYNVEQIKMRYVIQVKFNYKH

SMILES	auto-PARylation assay, immunoblot with anti-pan-ADPR reagent [1]	auto-PARylation assay, immunoblot with anti-pan-ADPR reagent [2]
NC(=O)c1ccc[n+]([C@@H]2O[C@H](COP(=O)(O)OP(=O)(O)OC[C@H]3O[C@@H](n4cnc5c(N)ncnc54)[C@H](O)[C@@H]3O)[C@@H](O)[C@H]2O)c1 [NAD^+]	AtPARP2 produced shorter PAR chains than AtPARP1 within the same incubation time periods	–
NC(=O)c1cccc(N)c1 [3-AB]	–	The signal was abolished by the PARP inhibitor 3-AB

Reference: PMC6701155, “New perspectives on the plant PARP family: Arabidopsis PARP3 is inactive, and PARP1 exhibits predominant poly (ADP-ribose) polymerase activity in response to DNA damage” (BMC Plant Biology, 2019)
